In patent publication US11534457B2, “Use of dextran sulfate” (priority 2017, dated 2022):

System: Mouse motor neurons (Aruna)
Assay: Gene expression array and pathway analysis, motor neurons
Assay type: cell-based
Description: For each cell line, n=8×25 cm^2 culture flasks were set up. Two flasks were harvested for each cell type on the day of treatment (24 hours after seeding). This represents the Day0 time point. From the remaining flasks, three flasks were treated with Control Medium and three were treated with Culture Medium (CM) containing LMW-DS to give a final concentration of 0.01 mg/ml. Cells from the treated flasks were collected after 48 hours. Therefore the collected data represent (a) untreated cells (Day0 Controls and Day2 Controls) and (b) cells treated with LMW-DS for 48 hours (Day2 LMW-DS treated).
25 cm^2 flasks were coated by adding 2 ml per flask of a solution of 50 μg/ml poly-d-lysine in Hank's balanced salt solution (HBSS) and incubating overnight at 37° C. in the dark. Flasks were washed with cell culture water and air-dried for 30 min in the dark. Flasks were coated by adding 1 ml per flask of a solution of 25 μg/ml laminin in phosphate-buffered saline (PBS) and incubating for 2 hour at 37° C. in the dark. The laminin flasks were washed with PBS three times before plating cells.
The culture medium was prepared according to Table 5.
Medium (see Table 5) was pre-warmed to 37° C. Cells were thawed in a 37° C. water bath for no longer than 2 min. 9 ml of media was gently added drop-wise. The cell suspension was mixed by inverting the tube carefully twice. The cells were counted with a Cellometer. The cells were centrifuged for 5 minutes at 200×g. Supernatant was removed (to the last 0.5 ml) and cells were gently resuspended by trituration. The cells from the 8 vials were mixed and distributed equally into the previously coated 25 cm^2 flasks (n=8). Cells were incubated at 37° C. with 5% CO2 for 24 hours before treatment.
LMW-DS was provided at a stock concentration of 20 mg/ml and was kept in a temperature monitored refrigerator at 4° C. A fresh […]LMW-DS stock (1.0 mg/ml) was prepared in sterile DMEM-F12. The concentrated drug stock was sterile filtered and added to the respective culture media (19.6 ml CM and 0.4 ml LMW-DS stock solution). The Control was made using 19.6 ml CM and 0.4 ml of DMEM-F12. LMW-DS and CM were added to the respective flasks (5 ml each) to reach the 0.01 mg/ml concentration of LMW-DS in each dish with a total of 10 ml CM each.
CM was aspirated into a clean and labelled 15 ml Falcon tube. The flasks (without culture medium) were placed into the −80° C. freezer for 30 minutes. The CM in the Falcon tubes were spun at 3000×g for 5 minutes. Supernatant was removed and the small pellet was re-suspended in 2.5 ml Trizol:Water (4:1) solution at room temperature (RT, […]).
Two aliquots of 1 ml lysate was removed from each sample and 200 μl of chloroform was added to each (0.2 ml of chloroform per 1 ml of TRIzol Reagent used during the cell lysis step) and the tube was shaken vigorously. Samples were stored at RT for 2-3 minutes and subsequently centrifuged at 12,000×g for 15 minutes at 4° C.
The expression data were downloaded into separate files for each cell line. The ‘Background corrected’ expression is the data from the “gProcessedSignal” of the arrays that is the result of the background signal extracted from the actual signal of the relevant probe. This is the most often used variable in array analysis. The background corrected signal was log 2 transformed for all samples for statistical analysis. To reduce the false discovery rate in the samples, the signals that were below ‘expression level’ were removed. The ‘below expression’ level was set at 5 for the log 2 transformed expression values.
Based on the expression pattern of the Control probes on each array it was decided to carry out Median Centering for all arrays before analysis to reduce the variability of the results. […]

“low molecular weight dextran sulfate [LMW-DS]” was tested, and the HtrA2 (0.01 mg/ml, 48 h) was “inhibition”, the amyloid-β production (0.01 mg/ml, 48 h) was “preventing amyloid-β production” and the “apoptosis pathway (F in FIG. 18)” value (0.01 mg/ml, 48 h) was “preventing and inhibiting apoptosis”. The “cellular attachment from expression patterns (neurons)” value (0.01 mg/ml, 48 h) was “significant inhibition of cellular attachment”, the fatty acid oxidation (0.01 mg/ml, 48 h) was “inhibiting fatty acid oxidation” and the “inhibition of glutamate production at baseline” value (0.01 mg/ml, 48 h) was “not affected”. The “level of H2O2” value (0.01 mg/ml, 48 h) was “reduced”, the “number of genes differentially expressed, D0 control to the D2 LMW-DS treated samples (second statement)” value (0.01 mg/ml, 48 h) was 425 genes and the “number of genes differentially expressed, D0 control vs D2 LMW-DS treated” value (0.01 mg/ml, 48 h) was 315 genes. For the same substance, the “number of genes: abolished nutrient effect / no effect” value (0.01 mg/ml, 48 h) was 177, the “number of genes: abolished nutrient effect / significant downregulation” value (0.01 mg/ml, 48 h) was 47 and the “number of genes: abolished nutrient effect / significant upregulation” value (0.01 mg/ml, 48 h) was 40. The “number of genes: abolished nutrient effect / total” value (0.01 mg/ml, 48 h) was 264, the “number of genes: enhanced response to nutrients / significant downregulation” value (0.01 mg/ml, 48 h) was 36 and the “number of genes: enhanced response to nutrients / significant upregulation” value (0.01 mg/ml, 48 h) was 103. For the same substance, the “number of genes: enhanced response to nutrients / total” value (0.01 mg/ml, 48 h) was 139, the “number of genes: new effect induced by LMW-DS / no effect” value (0.01 mg/ml, 48 h) was 108 and the “number of genes: new effect induced by LMW-DS / significant downregulation” value (0.01 mg/ml, 48 h) was 375. For the same substance, the “number of genes: new effect induced by LMW-DS / significant upregulation” value (0.01 mg/ml, 48 h) was 71, the “number of genes: new effect induced by LMW-DS / total” value (0.01 mg/ml, 48 h) was 554 and the “number of genes: not different from control / significant downregulation” value (0.01 mg/ml, 48 h) was 104. The “number of genes: not different from control / significant upregulation” value (0.01 mg/ml, 48 h) was 75, the “number of genes: not different from control / total” value (0.01 mg/ml, 48 h) was 179 and the “number of genes: total / no effect” value (0.01 mg/ml, 48 h) was 285. The “number of genes: total / significant downregulation” value (0.01 mg/ml, 48 h) was 562, the “number of genes: total / significant upregulation” value (0.01 mg/ml, 48 h) was 289 and the “number of genes: total / total” value (0.01 mg/ml, 48 h) was 1136. For the same substance, the “upstream regulator AGT: activation z-score” value (D0 to LMW-DS treatment) was 2.631, the “upstream regulator AGT: predicted activation state relative D2 control” value (D0 to LMW-DS treatment) was “Activated” and the “upstream regulator BMP4: activation z-score” value (D0 to LMW-DS treatment) was 0.972. The “upstream regulator BMP4: predicted activation state relative D2 control” value (D0 to LMW-DS treatment) was “More activated relative to control”, the “upstream regulator BMP6: activation z-score” value (D0 to LMW-DS treatment) was 0.13 and the “upstream regulator BMP6: predicted activation state relative D2 control” value (D0 to LMW-DS treatment) was “More activated relative to control”. For the same substance, the “upstream regulator BMP7: activation z-score” value (D0 to LMW-DS treatment) was 1.092, the “upstream regulator BMP7: predicted activation state relative D2 control” value (D0 to LMW-DS treatment) was “More activated relative to control” and the “upstream regulator INHA: activation z-score” value (D0 to LMW-DS treatment) was 0.588. For the same substance, the “upstream regulator INHA: predicted activation state relative D2 control” value (D0 to LMW-DS treatment) was “More activated relative to control”.
